Assay [1] deals with DNA topoisomerase 2-alpha (Homo sapiens) (UniProt P11388). Put plainly: Inhibition of recombinant human topoisomerase 2alpha-mediated relaxation of supercoiled pBR322 DNA at 100 uM measured after 30 mins by ethidium bromide staining based agarose gel electrophoresis relative to control.
A further assay deals with HeLa. The experiment in a line: Antiproliferative activity against human HeLa cells measured after 72 hrs by EZ-Cytox assay. It counts as functional, cell-based.
In assay [2] the target is T1, DNA topoisomerase 1 (Homo sapiens) (UniProt P11387).
T1 sequence (whole entry): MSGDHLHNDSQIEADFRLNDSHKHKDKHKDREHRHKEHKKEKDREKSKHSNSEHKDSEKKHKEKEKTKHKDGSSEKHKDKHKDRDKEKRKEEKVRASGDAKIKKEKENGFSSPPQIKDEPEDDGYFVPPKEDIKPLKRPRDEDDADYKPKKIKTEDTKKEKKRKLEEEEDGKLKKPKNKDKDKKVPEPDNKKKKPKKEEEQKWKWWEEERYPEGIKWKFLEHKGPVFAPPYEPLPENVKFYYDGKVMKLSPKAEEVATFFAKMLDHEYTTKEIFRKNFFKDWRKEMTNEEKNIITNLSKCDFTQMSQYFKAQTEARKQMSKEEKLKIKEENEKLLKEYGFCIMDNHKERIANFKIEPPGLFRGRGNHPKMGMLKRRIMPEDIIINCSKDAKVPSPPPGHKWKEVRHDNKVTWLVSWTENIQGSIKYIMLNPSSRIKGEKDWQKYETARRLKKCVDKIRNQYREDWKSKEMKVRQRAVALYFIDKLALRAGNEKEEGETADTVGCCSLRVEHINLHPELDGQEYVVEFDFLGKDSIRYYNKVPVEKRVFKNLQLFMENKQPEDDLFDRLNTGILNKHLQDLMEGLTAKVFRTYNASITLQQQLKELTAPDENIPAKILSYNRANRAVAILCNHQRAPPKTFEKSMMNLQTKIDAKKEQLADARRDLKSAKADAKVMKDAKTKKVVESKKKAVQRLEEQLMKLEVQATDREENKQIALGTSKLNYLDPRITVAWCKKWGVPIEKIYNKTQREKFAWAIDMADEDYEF
The experiment in a line: Inhibition of recombinant human topoisomerase 1-mediated relaxation of supercoiled pBR322 DNA at 100 uM measured after 30 mins by ethidium bromide staining based agarose gel electrophoresis relative to control.

A further assay concerns T47D. The experiment in a line: Antiproliferative activity against human T47D cells measured after 72 hrs by EZ-Cytox assay. The assay is classed as functional, cell-based.
The next assay deals with HCT-15. Put plainly: Antiproliferative activity against human HCT15 cells measured after 72 hrs by EZ-Cytox assay. It counts as functional, cell-based. The settings on record: HCT-15, 72 h.
Another assay relates to DU-145. The experiment in a line: Antiproliferative activity against human DU145 cells measured after 72 hrs by EZ-Cytox assay. To be noted: DU-145, 72 h. The assay is classed as functional, cell-based.
The target in assay [3] is DNA topoisomerase 2-alpha (Homo sapiens) (UniProt P11388). The experiment in a line: Inhibition of recombinant human topoisomerase 2alpha-mediated relaxation of supercoiled pBR322 DNA at 20 uM measured after 30 mins by ethidium bromide staining based agarose gel electrophoresis relative to control.

SMILES strings stand for the structures. A value given as a limit tells only on which side of the number the result lay.

DNA topoisomerase 2-alpha (Homo sapiens), sequence (P11388 whole entry): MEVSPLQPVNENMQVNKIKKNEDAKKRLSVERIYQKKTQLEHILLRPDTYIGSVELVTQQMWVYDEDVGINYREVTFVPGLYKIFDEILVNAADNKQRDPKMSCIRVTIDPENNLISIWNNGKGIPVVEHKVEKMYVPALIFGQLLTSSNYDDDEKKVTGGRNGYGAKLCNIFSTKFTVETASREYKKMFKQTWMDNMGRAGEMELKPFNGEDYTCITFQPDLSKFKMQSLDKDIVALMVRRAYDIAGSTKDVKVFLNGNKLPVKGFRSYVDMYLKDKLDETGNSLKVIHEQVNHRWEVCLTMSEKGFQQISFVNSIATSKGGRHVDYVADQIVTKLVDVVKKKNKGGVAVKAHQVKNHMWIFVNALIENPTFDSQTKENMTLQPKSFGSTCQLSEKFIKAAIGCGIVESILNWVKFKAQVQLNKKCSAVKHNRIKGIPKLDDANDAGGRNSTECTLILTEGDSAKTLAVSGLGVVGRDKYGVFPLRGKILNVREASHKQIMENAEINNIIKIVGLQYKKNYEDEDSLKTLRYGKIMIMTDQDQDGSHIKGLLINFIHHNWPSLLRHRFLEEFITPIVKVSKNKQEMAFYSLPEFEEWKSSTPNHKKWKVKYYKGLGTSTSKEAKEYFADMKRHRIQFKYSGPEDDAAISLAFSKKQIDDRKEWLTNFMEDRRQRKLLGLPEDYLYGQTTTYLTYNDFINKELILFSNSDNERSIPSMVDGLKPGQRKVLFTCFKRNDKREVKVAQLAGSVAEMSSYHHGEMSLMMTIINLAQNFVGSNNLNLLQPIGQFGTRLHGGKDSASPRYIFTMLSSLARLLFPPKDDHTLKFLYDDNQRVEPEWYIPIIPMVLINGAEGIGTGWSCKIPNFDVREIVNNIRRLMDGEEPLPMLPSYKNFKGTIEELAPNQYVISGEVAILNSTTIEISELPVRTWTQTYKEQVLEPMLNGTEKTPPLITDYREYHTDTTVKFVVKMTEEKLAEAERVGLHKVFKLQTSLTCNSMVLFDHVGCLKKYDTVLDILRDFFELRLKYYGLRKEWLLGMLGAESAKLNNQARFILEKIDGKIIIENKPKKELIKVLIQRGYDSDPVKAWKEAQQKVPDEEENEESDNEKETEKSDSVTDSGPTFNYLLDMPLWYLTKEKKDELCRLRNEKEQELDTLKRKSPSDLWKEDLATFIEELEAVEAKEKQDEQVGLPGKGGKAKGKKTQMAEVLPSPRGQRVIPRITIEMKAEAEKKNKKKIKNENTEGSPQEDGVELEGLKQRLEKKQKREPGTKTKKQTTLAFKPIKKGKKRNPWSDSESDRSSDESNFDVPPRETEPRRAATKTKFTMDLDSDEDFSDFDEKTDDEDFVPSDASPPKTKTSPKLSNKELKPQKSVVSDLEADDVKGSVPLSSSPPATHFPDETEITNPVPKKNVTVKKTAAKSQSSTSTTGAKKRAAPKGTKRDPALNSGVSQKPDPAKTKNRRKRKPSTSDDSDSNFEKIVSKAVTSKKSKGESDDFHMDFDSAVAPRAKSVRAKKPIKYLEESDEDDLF

On to `Oc1cccc(-c2cc(-c3cccc(C(F)(F)F)c3)nc3c2Cc2cccc(O)c2-3)c1`, for which the figures for the inhibition in assay [1], in assay [2] and in assay [3] were 71.6%, 0.2% and 0.7%, respectively. Besides, the IC50 – broadly, the point on the concentration scale where inhibition reaches its midpoint – was above 50 µM with HeLa, 3630 nM in the assay on T47D, 14200 nM with HCT-15 and 2770 nM in the assay with DU-145.
For the compound `Oc1ccccc1-c1cc(-c2cccc(Cl)c2)nc2c1Cc1c(O)cccc1-2`, the inhibition (usually the relative decrease from the control value, in per cent) in assay [1] came out at 83.5%; in assay [2] it was 0%; in assay [3], 6.9%. Moreover, the IC50 in the assay with HeLa was above 50 µM; in the assay on T47D, 640 nM; in the assay with HCT-15, 7470 nM; with DU-145 it was 560 nM.
On to `Oc1ccccc1-c1cc(-c2ccc(F)cc2)nc2c1Cc1cccc(O)c1-2`, for which the inhibition was 34.4% in assay [1], 0% in assay [2] and 0% in assay [3]. For the same compound, the IC50 is 3.08 µM in the assay with HeLa, 740 nM in the assay with T47D, 2070 nM in the assay on HCT-15 and 1400 nM in the assay with DU-145.
For the compound `Oc1cccc(-c2cc(-c3ccc(F)cc3)nc3c2Cc2ccc(O)cc2-3)c1`, the results for the inhibition in assay [1], in assay [2] and in assay [3] were 48.3%, 11.7% and 5.4%, respectively. The IC50 in the assay on HeLa worked out at 3.82 µM; in the assay on T47D, 680 nM; in the assay with HCT-15, 1460 nM; in the assay with DU-145, 1060 nM.
Turning to `Oc1ccccc1-c1cc(-c2ccc(Cl)cc2)nc2c1Cc1cccc(O)c1-2`, the inhibition in assay [1] was 83.9%; in assay [2], 0%; in assay [3], 25.3%. The half-maximal inhibitory concentration (IC50) with HeLa was found to be 5.31 µM; in the assay with T47D, 2410 nM; with HCT-15 it was 1230 nM; in the assay on DU-145, 550 nM.
As for `Oc1ccc(-c2cc(-c3ccccc3C(F)(F)F)nc3c2Cc2ccc(O)cc2-3)cc1`, the inhibition in assay [1] is 81%; in assay [2], 6.7%; in assay [3] it was 1.2%. The IC50 in the assay with HeLa turned out to be 1.52 µM; with T47D, 1470 nM; in the assay on HCT-15, 1320 nM; with DU-145, 2780 nM.
Take `Oc1ccccc1-c1cc(-c2ccccc2)nc2c1Cc1cccc(O)c1-2`: the inhibition turned out to be 95.8% in assay [1], 0.1% in assay [2] and 0.1% in assay [3]. For the same compound, the IC50 in the assay with HeLa is 2.95 µM; in the assay with T47D, 2440 nM; in the assay on HCT-15 it was 1360 nM; in the assay on DU-145 it was 170 nM.
For `Oc1ccccc1-c1cc(-c2ccccc2Cl)nc2c1Cc1c(O)cccc1-2`, the figures for the inhibition in assay [1], in assay [2] and in assay [3] were 82%, 0% and 0%, respectively. The IC50 was 0.68 µM with HeLa, 920 nM in the assay on T47D, 770 nM in the assay with HCT-15 and 830 nM with DU-145.
As for `Oc1ccc2c(c1)-c1nc(-c3ccc(C(F)(F)F)cc3)cc(-c3ccccc3O)c1C2`, the results for the inhibition in assay [1], in assay [2] and in assay [3] were 100%, 0% and 3%, respectively. The half-maximal inhibitory concentration (IC50) amounted to 2.23 µM in the assay on HeLa, 670 nM in the assay on T47D, 3250 nM in the assay on HCT-15 and 2800 nM with DU-145.
On to `Oc1cccc(-c2cc(-c3cccc(F)c3)nc3c2Cc2ccc(O)cc2-3)c1`, for which the inhibition stood at 44.2% in assay [1], 17.1% in assay [2] and 4.9% in assay [3]. The concentration for half-maximal inhibition (IC50) turned out to be 3.45 µM with HeLa, 540 nM with T47D, 1190 nM in the assay with HCT-15 and 2170 nM in the assay with DU-145.
In the case of `Oc1ccc(-c2cc(-c3ccccc3Cl)nc3c2Cc2cc(O)ccc2-3)cc1`, the values for the inhibition in assay [1], in assay [2] and in assay [3] were 86.6%, 7.6% and 53.6%, respectively. Besides, the concentration for half-maximal inhibition (IC50) with HeLa is 0.7 µM; with T47D, 1870 nM; in the assay on HCT-15 it was 1850 nM; in the assay with DU-145 it was 430 nM.
On to `Oc1ccc(-c2cc(-c3ccccc3Cl)c3c(n2)-c2ccc(O)cc2C3)cc1`, for which the inhibition in assay [1] was 80%; in assay [2], 11.9%; in assay [3], 7%. Moreover, the IC50 turned out to be 4.92 µM in the assay with HeLa, 2700 nM in the assay with T47D, 4270 nM in the assay on HCT-15 and 3250 nM in the assay on DU-145.
Take `Oc1ccccc1-c1cc(-c2cccc(F)c2)nc2c1Cc1c(O)cccc1-2`: the values for the inhibition in assay [1], in assay [2] and in assay [3] were 80.7%, 0% and 4.8%, respectively. Further, the 50% inhibitory concentration (IC50) in the assay with HeLa turned out to be 3.92 µM; in the assay on T47D it was 1250 nM; in the assay with HCT-15, 2350 nM; in the assay on DU-145, 3940 nM.
With `Oc1ccccc1-c1cc(-c2cccc(Cl)c2)c2c(n1)-c1cccc(O)c1C2`, the values for the inhibition in assay [1], in assay [2] and in assay [3] were 75.4%, 0% and 1.5%, respectively. Moreover, the IC50 in the assay on HeLa amounted to 20.5 µM; with T47D, 12000 nM; in the assay with HCT-15 it was 2450 nM; in the assay on DU-145 it was 6010 nM.
For `Oc1ccc(-c2cc(-c3ccc(F)cc3)nc3c2Cc2ccc(O)cc2-3)cc1`, the inhibition stood at 47.6% in assay [1], 0.9% in assay [2] and 1.4% in assay [3]. For the same compound, the IC50 is 2.25 µM with HeLa, 1140 nM with T47D, 2540 nM with HCT-15 and 2340 nM in the assay on DU-145.
With `Oc1ccc2c(c1)Cc1c(-c3ccccc3O)cc(-c3ccc(C(F)(F)F)cc3)nc1-2`, the inhibition in assay [1] turned out to be 99.9%; in assay [2], 0%; in assay [3], 11.9%. Besides, the half-maximal inhibitory concentration (IC50) in the assay with HeLa amounted to 7.87 µM; with T47D, 830 nM; in the assay with HCT-15, 4330 nM; in the assay with DU-145, 2090 nM.
Consider `Oc1ccc2c(c1)Cc1c(-c3cccc(Cl)c3)cc(-c3ccccc3O)nc1-2`, for which the inhibition in assay [1] is 74.3%; in assay [2], 1.6%; in assay [3], 3.4%. In addition, the IC50 was above 50 µM with HeLa, above 50000 nM with T47D, above 50000 nM in the assay with HCT-15 and above 50000 nM in the assay with DU-145.
With `Oc1ccc(-c2cc(-c3ccc(F)cc3)nc3c2Cc2c(O)cccc2-3)cc1`, the values for the inhibition in assay [1], in assay [2] and in assay [3] were 50.8%, 14.7% and 3.6%, respectively. Moreover, the IC50 was determined as 4.88 µM with HeLa, 1370 nM in the assay with T47D, 2230 nM in the assay with HCT-15 and 1840 nM in the assay on DU-145.
Regarding `Oc1ccc2c(c1)Cc1c(-c3ccc(Cl)cc3)cc(-c3ccccc3O)nc1-2`, the inhibition in assay [1] worked out at 70.8%; in assay [2] it was 21.4%; in assay [3], 0%. The IC50 in the assay with HeLa was above 50 µM; in the assay with T47D, above 50000 nM; in the assay with HCT-15 it was above 50000 nM; in the assay on DU-145 it was above 50000 nM.
Regarding `Oc1ccc2c(c1)Cc1c(-c3ccccc3O)cc(-c3cccc(Cl)c3)nc1-2`, the inhibition in assay [1] worked out at 80.8%; in assay [2] it was 14.6%; in assay [3], 2.6%. Further, the IC50 with HeLa came out at 2.69 µM; in the assay on T47D, 2770 nM; in the assay with HCT-15 it was 2760 nM; in the assay on DU-145 it was 360 nM.
As for `Oc1cccc(-c2cc(-c3ccc(F)cc3)nc3c2Cc2cc(O)ccc2-3)c1`, the values for the inhibition in assay [1], in assay [2] and in assay [3] were 65.1%, 22.3% and 28.7%, respectively. The IC50 was 3.74 µM with HeLa, 1720 nM in the assay on T47D, 1920 nM with HCT-15 and 2940 nM in the assay on DU-145.

(Values after ChEMBL document CHEMBL4373715, “Discovery and Biological Evaluations of Halogenated 2,4-Diphenyl Indeno[1,2-b]pyridinol Derivatives as Potent Topoisomerase IIα-Targeted Chemotherapeutic Agents for Breast Cancer” (J Med Chem, 2019).)
